Common to all, as to assay type: cell-based
The test system of one test is Sh. flexneri2a. The test is described as follows: In vitro antibacterial activity, two-fold agar-plate dilution method (MIC), Sh. flexneri 2a. The conditions noted are these: Shigella flexneri, HI-agar, 37° C., 20 hours, 10^8 viable cells per ml, read-out: minimal inhibitory concentration (MIC). Here is the method:
(§1) In vitro antibacterial activity was determined by the two-fold agar-plate dilution method as described below.
(§2) One loopful of an overnight culture of each test strain in Trypticase-soy broth (10^8 viable cells per ml) was streaked on heart infusion agar (HI-agar) containing graded concentrations of antibiotics, and the minimal inhibitory concentration (MIC) was expressed in terms of μg/ml after incubation at 37° C. for 20 hours.

The subject of the next test is Sal. Enteritidis. The test is described as follows: In vitro antibacterial activity, two-fold agar-plate dilution method (MIC), Sal. Enteritidis. Conditions: Salmonella enterica, read-out: minimal inhibitory concentration (MIC). As for the experimental part: as §1, §2
The subject of a further test is Ps. aeruginosa721. In words: In vitro antibacterial activity, two-fold agar-plate dilution method (MIC), Ps. aeruginosa 721. Conditions: Pseudomonas aeruginosa, read-out: minimal inhibitory concentration (MIC). Here is the method:
as §1, §2

A further test concerns E coli 341. In words: In vitro antibacterial activity, two-fold agar-plate dilution method (MIC), E coli 341. Conditions: read-out: minimal inhibitory concentration (MIC). As for the experimental part: as §1, §2
The next test deals with Kl. pneumoniae 417. In words: In vitro antibacterial activity, two-fold agar-plate dilution method (MIC), Kl. pneumoniae 417. The conditions noted are these: Klebsiella pneumoniae, HI-agar, 37° C., 20 hours, 10^8 viable cells per ml, read-out: minimal inhibitory concentration (MIC). As for the experimental part:
as §1, §2

For the next test, the system named is Pr. mirabilis 525. In words: In vitro antibacterial activity, two-fold agar-plate dilution method (MIC), Pr. mirabilis 525. Conditions: read-out: minimal inhibitory concentration (MIC). As for the experimental part: as §1, §2
The mark [1] stands for this setting: Ps. aeruginosa721, HI-agar, 37° C., 20 hours, 10^8 viable cells per ml.
Where [2] appears, read: E coli 341, HI-agar, 37° C., 20 hours, 10^8 viable cells per ml.
Where [3] appears, read: Proteus mirabilis, Pr. mirabilis 525, HI-agar, 37° C., 20 hours, 10^8 viable cells per ml.
Setting [4] is: Sal. Enteritidis, HI-agar, 37° C., 20 hours, 10^8 viable cells per ml.

Converted amounts (≈) assume the structure as drawn. Read-outs that look alike come from different tables or passages of the source.

As to `Cn1nnnc1SCC1=C(C(=O)O)N2C(=O)C(NC(=O)/C(=N\O)c3ccc(O)cc3)C2SC1` (stereo not drawn) [Test Compound (1), Sodium 7-[2-hydroxyimino-2-(4-hydroxyphenyl)acetamido]-3-(1-methyl-1H-tetrazol-5-yl)thiomethyl-3-cephem-4-carboxylate (syn isomer)], the MIC was determined as 0.78 µg/mL in the test with Sh. flexneri2a; 3.13 µg/mL with Sal. Enteritidis (ENTERITIDIS, 20 h); 25 µg/mL in the test on Ps. aeruginosa721 (setting [1]); 1.56 µg/mL in the test on E coli 341 (setting [2]); 3.13 µg/mL with Kl. pneumoniae 417; 1.56 µg/mL in the test on Pr. mirabilis 525 (setting [3]).
As to `Cn1nnnc1SCC1=C(C(=O)O)N2C(=O)C(NC(=O)/C(=N\O)c3cccc(O)c3)C2SC1` (stereo not drawn) [Test Compound (2), Sodium 7-(2-hydroxyimino-2-(3-hydroxyphenyl)acetamido]-3-(1-methyl-1H-tetrazol-5-yl)thiomethyl-3-cephem-4-carboxylate (syn isomer)], the MIC with Sh. flexneri2a was 0.78 µg/mL; in the test with Sal. Enteritidis (setting [4]), 1.56 µg/mL; in the test with Ps. aeruginosa721 (setting [1]), 100 µg/mL; with E coli 341 (setting [2]), 0.78 µg/mL; with Kl. pneumoniae 417, 0.78 µg/mL; in the test on Pr. mirabilis 525 (setting [3]), 1.56 µg/mL.
Consider `CC(=O)OCC1=C(C(=O)O)N2C(=O)C(NC(=O)/C(=N\O)c3ccc(O)c(Cl)c3)C2SC1` (stereo not drawn) [Test Compound (3), Sodium 7-[2-hydroxyimino-2-(3-chloro-4-hydroxyphenyl)acetamido]cephalosporanate (syn isomer)], for which the MIC in the test with Sh. flexneri2a turned out to be 3.13 µg/mL; with Sal. Enteritidis (setting [4]), 0.78 µg/mL; with Ps. aeruginosa721 (20 h), 3.13 µg/mL; in the test with E coli 341 (setting [2]), 6.25 µg/mL; in the test on Kl. pneumoniae 417, 3.13 µg/mL; in the test with Pr. mirabilis 525 (setting [3]), 0.39 µg/mL.
As for `O=C(O)C1=C(CSc2nncs2)CSC2C(NC(=O)/C(=N\O)c3cccc(O)c3)C(=O)N12` (stereo not drawn) [Test Compound (4), 7-[2-Hydroxyimino-2-[3-hydroxyphenyl)acetamido]-3-(1,3,4-thiadiazol-2-yl)thiomethyl-3-cephem-4-carboxylic acid (syn isomer)], the MIC in the test with Sh. flexneri2a worked out at 0.39 µg/mL (≈ 0.79 µM); with Sal. Enteritidis (setting [4]), 0.39 µg/mL (≈ 0.79 µM); with Ps. aeruginosa721 (setting [1]) it was 12.5 µg/mL (≈ 25.3 µM); in the test with E coli 341 (setting [2]) it was 0.78 µg/mL (≈ 1.58 µM); with Kl. pneumoniae 417 it was 3.13 µg/mL (≈ 6.34 µM); with Pr. mirabilis 525 (setting [3]), 1.56 µg/mL (≈ 3.16 µM).
As to `Cc1nnc(SCC2=C(C(=O)O)N3C(=O)C(NC(=O)/C(=N\O)c4cccc(O)c4)C3SC2)s1` (stereo not drawn) [Test Compound (5), 7-[2-Hydroxyimino-2-(3-hydroxyphenyl)acetamido]-3-(5-methyl-1,3,4-thiadiazol-2-yl)thiomethyl-3-cephem-4-carboxylic acid (syn isomer)], the MIC was 0.39 µg/mL (≈ 0.768 µM) with Sh. flexneri2a; 0.2 µg/mL (≈ 0.394 µM) in the test with Sal. Enteritidis (setting [4]); 6.25 µg/mL (≈ 12.3 µM) in the test on Ps. aeruginosa721 (setting [1]); 0.78 µg/mL (≈ 1.54 µM) in the test with E coli 341 (setting [2]); 0.78 µg/mL (≈ 1.54 µM) in the test on Kl. pneumoniae 417; 3.13 µg/mL (≈ 6.17 µM) with Pr. mirabilis 525 (setting [3]).
Regarding `Cn1nnnc1SCC1=C(C(=O)O)N2C(=O)C(NC(=O)/C(=N\OC(=O)c3ccccc3)c3cccc(O)c3)C2SC1` (stereo not drawn) [Test Compound (6), 7-[2-Benzoyloxyimino-2-(3-hydroxyphenyl)acetamido]-3-(1-methyl-1H-tetrazol-5-yl)thiomethyl-3-cephem-4-carboxylic acid (syn isomer)], the MIC is 0.78 µg/mL (≈ 1.31 µM) in the test on Sh. flexneri2a; 0.39 µg/mL (≈ 0.655 µM) in the test with Sal. Enteritidis (setting [4]); 12.5 µg/mL (≈ 21 µM) in the test with Ps. aeruginosa721 (setting [1]); 1.56 µg/mL (≈ 2.62 µM) with E coli 341 (setting [2]); 0.39 µg/mL (≈ 0.655 µM) in the test on Kl. pneumoniae 417; 0.78 µg/mL (≈ 1.31 µM) in the test on Pr. mirabilis 525 (setting [3]).
As to `CCOC(=O)O/N=C(\C(=O)NC1C(=O)N2C(C(=O)O)=C(CSc3nnnn3C)CSC12)c1cccc(O)c1` (stereo not drawn) [Test Compound (7), 7-[2-Ethoxycarbonyloxyimino-2-(3-hydroxyphenyl)acetamido]-3-(1-methyl-1H-tetrazol-5-yl)thiomethyl-3-cephem-4-carboxylic acid (syn isomer)], the MIC amounted to 1.56 µg/mL (≈ 2.77 µM) with Sh. flexneri2a; 0.2 µg/mL (≈ 0.355 µM) in the test with Sal. Enteritidis (setting [4]); 25 µg/mL (≈ 44.4 µM) in the test with Ps. aeruginosa721 (setting [1]); 3.13 µg/mL (≈ 5.55 µM) in the test on E coli 341 (setting [2]); 0.39 µg/mL (≈ 0.692 µM) in the test with Kl. pneumoniae 417; 0.39 µg/mL (≈ 0.692 µM) in the test with Pr. mirabilis 525 (setting [3]).
Turning to `CC(=O)OCC1=C(C(=O)O)N2C(=O)C(NC(=O)/C(=N\O)c3cccc(O)c3)C2SC1` (stereo not drawn) [Test Compound (8), 7-[2-Hydroxyimino-2-(3-hydroxphenyl)acetamido]cephalosporanic acid (syn isomer)], the MIC in the test on Sh. flexneri2a was 0.78 µg/mL (≈ 1.79 µM); with Sal. Enteritidis (ENTERITIDIS, 20 h), 1.56 µg/mL (≈ 3.58 µM); in the test on Ps. aeruginosa721 (setting [1]), 25 µg/mL (≈ 57.4 µM); with E coli 341 (setting [2]), 0.78 µg/mL (≈ 1.79 µM); with Kl. pneumoniae 417 it was 1.56 µg/mL (≈ 3.58 µM); in the test with Pr. mirabilis 525 (Proteus mirabilis, 525, 20 h) it was 1.56 µg/mL (≈ 3.58 µM).
Take `NC(=O)OCC1=C(C(=O)O)N2C(=O)C(NC(=O)/C(=N\O)c3cccc(O)c3)C2SC1` (stereo not drawn) [Test Compound (9), Sodium 7-[2-hydroxyimino-2-(3-hydroxyphenyl)acetamido]-3-carbamoyloxymethyl-3-cephem-4-carboxylate (syn isomer)]: the MIC came out at 0.78 µg/mL in the test with Sh. flexneri2a; 0.78 µg/mL in the test with Sal. Enteritidis (setting [4]); 6.25 µg/mL in the test with Ps. aeruginosa721 (setting [1]); 0.2 µg/mL with Kl. pneumoniae 417; 0.78 µg/mL in the test with Pr. mirabilis 525 (setting [3]).
`Cn1nnnc1SCC1=C(C(=O)O)N2C(=O)C(NC(=O)/C(=N\O)c3ccc(O)c([N+](=O)[O-])c3)C2SC1` (stereo not drawn) [Test Compound (10), 7-[2-Hydroxyimino-2-(3-nitro-4-hydroxyphenyl)acetamido]-3-(1-methyl-1H-tetrazol-5-yl)thiomethyl-3-cephem-4-carboxylic acid (syn isomer)]: the MIC is 1.56 µg/mL (≈ 2.91 µM) in the test with Sh. flexneri2a; 0.2 µg/mL (≈ 0.373 µM) in the test with Sal. Enteritidis (setting [4]); 3.13 µg/mL (≈ 5.83 µM) in the test on E coli 341 (setting [2]); 0.39 µg/mL (≈ 0.727 µM) in the test on Kl. pneumoniae 417; 0.2 µg/mL (≈ 0.373 µM) with Pr. mirabilis 525 (setting [3]).
On to `Cc1nnc(SCC2=C(C(=O)O)N3C(=O)C(NC(=O)/C(=N\O)c4ccccc4)C3SC2)s1` (stereo not drawn) [Test Compound (A), 7-(2-Hydroxyimino-2-phenylacetamido)-3-(5-methyl-1,3,4-thiadiazol-2-yl)thiomethyl-3-cephem-4-carboxylic acid (syn isomer), reference compound], for which the MIC in the test with Sh. flexneri2a was determined as 6.25 µg/mL (≈ 12.7 µM); with Sal. Enteritidis (ENTERITIDIS, 20 h), 6.25 µg/mL (≈ 12.7 µM); in the test on Ps. aeruginosa721 (setting [1]), 50 µg/mL (≈ 102 µM); in the test on E coli 341 (20 h), 12.5 µg/mL (≈ 25.4 µM); with Kl. pneumoniae 417, 12.5 µg/mL (≈ 25.4 µM); in the test with Pr. mirabilis 525 (setting [3]) it was 25 µg/mL (≈ 50.9 µM).

Source of the values: patent US4143166A, “7[(2-Hydroxyamino-2-disubstituted phenyl-acetamido)-]3-heterocyclicthio-3-cephem-4-carboxylic acids” (Fujisawa Pharmaceutical Co., Ltd., priority 1975, dated 1979).
